Test [1] deals with Pseudomonas aeruginosa UI-18: Wild-type (PA-7). The test is described as follows: MIC determination (CLSI), strain PA-7. Format: cell-based. Particulars: strain PA-7; generated in the same manner as in Table 4; unit assumed. The procedure, abridged: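 MIC determined by broth dilution per CLSI M7-A7 guidelines with M100-S18 interpretive standards. Test organism: wild-type Pseudomonas aeruginosa UI-18, designated PA-7.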

Test [2] has as its system Escherichia coli EC-1: VOGEL, mouse virulent. Description: MIC determination (CLSI), strain EC-1. Format: cell-based. Particulars: strain EC-1; generated in the same manner as in Table 4; unit assumed. The method, boiled down:
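The mouse-virulent VOGEL isolate of E. coli, EC-1, served as test organism. Minimum inhibitory concentration was measured by CLSI dilution methodology (M7-A7; M100-S18 standards).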

Each structure is given as a SMILES string.

As for `CC(CCn1ccc(-c2cccc(F)c2F)cc1=O)(C(=O)NO)S(C)(=O)=O` (stereo not shown) [Example 147, 4-[4-(2,3-difluorophenyl)-2-oxopyridin-1(2H)-yl]-N-hydroxy-2-methyl-2-(methylsulfonyl)butanamide], in test [1], the PA-7 (MIC) came out at 1 µg/mL. The EC-1 (MIC) in test [2] was 2 µg/mL.

`CN(C)S(=O)(=O)c1cccc(-c2ccn(CCC(C)(C(=O)NO)S(C)(=O)=O)c(=O)c2)c1` (stereo not shown) [Example 148, 4-[4-{3-[(dimethylamino)sulfonyl]phenyl}-2-oxopyridin-1(2H)-yl]-N-hydroxy-2-methyl-2-(methylsulfonyl)butanamide] returned a PA-7 (MIC) in test [1] above 64 µg/mL. In test [2], this compound returned an EC-1 (MIC) of 64 µg/mL.

On to `CC(CCn1ccc(-c2ccc(C#N)s2)cc1=O)(C(=O)NO)S(C)(=O)=O` (stereo not shown) [Example 149, 4-[4-(5-cyano-2-thienyl)-2-oxopyridin-1(2H)-yl]-N-hydroxy-2-methyl-2-(methylsulfonyl)butanamide], for which, in test [1], the PA-7 (MIC) was 16 µg/mL. Moreover, in test [2], the EC-1 (MIC) was 16 µg/mL.

`CC(CCn1ccc(-c2cc(Cl)ccc2F)cc1=O)(C(=O)NO)S(C)(=O)=O` (stereo not shown) [Example 150, 4-[4-(5-chloro-2-fluorophenyl)-2-oxopyridin-1(2H)-yl]-N-hydroxy-2-methyl-2-(methylsulfonyl)butanamide] gave a PA-7 (MIC) in test [1] of 4 µg/mL. The EC-1 (MIC) in test [2] is 4 µg/mL.

In turn, `Cc1ccc(-c2ccn(CCC(C)(C(=O)NO)S(C)(=O)=O)c(=O)c2)cc1F` (stereo not shown) [Example 151, 4-[4-(3-fluoro-4-methylphenyl)-2-oxopyridin-1(2H)-yl]-N-hydroxy-2-methyl-2-(methylsulfonyl)butanamide] came in with a PA-7 (MIC) in test [1] of 2 µg/mL. In test [2], this compound came in with an EC-1 (MIC) of 2 µg/mL.

With `CCCn1cc(-c2ccn(CCC(C)(C(=O)NO)S(C)(=O)=O)c(=O)c2)cn1` (stereo not shown) [Example 152, N-hydroxy-2-methyl-2-(methylsulfonyl)-4-[2-oxo-4-(1-propyl-1H-pyrazol-4-yl)pyridin-1(2H)-yl]butanamide], the PA-7 (MIC) in test [1] was above 64 µg/mL. The EC-1 (MIC) in test [2] was above 64 µg/mL.

The compound `Cc1c(F)cccc1-c1ccn(CCC(C)(C(=O)NO)S(C)(=O)=O)c(=O)c1` (stereo not shown) [Example 153, 4-[4-(3-fluoro-2-methylphenyl)-2-oxopyridin-1(2H)-yl]-N-hydroxy-2-methyl-2-(methylsulfonyl)butanamide] showed a PA-7 (MIC) in test [1] of 8 µg/mL. Further, the EC-1 (MIC) in test [2] stood at 32 µg/mL.

`CC(C)(C)NC(=O)c1cncc(-c2ccn(CCC(C)(C(=O)NO)S(C)(=O)=O)c(=O)c2)c1` (stereo not shown) [Example 154, N-tert-butyl-1′-[4-(hydroxyamino)-3-methyl-3-(methylsulfonyl)-4-oxobutyl]-2′-oxo-1′,2′-dihydro-3,4′-bipyridine-5-carboxamide] displayed a PA-7 (MIC) in test [1] above 64 µg/mL. In test [2], this compound showed an EC-1 (MIC) above 64 µg/mL.

Compound `CC(CCn1ccc(-c2ccc(F)cc2Cl)cc1=O)(C(=O)NO)S(C)(=O)=O` (stereo not shown) [Example 155, 4-[4-(2-chloro-4-fluorophenyl)-2-oxopyridin-1(2H)-yl]-N-hydroxy-2-methyl-2-(methylsulfonyl)butanamide] yielded a PA-7 (MIC) in test [1] of 0.5 µg/mL. The EC-1 (MIC) in test [2] turned out to be 4 µg/mL.

In test [1], `CC(CCn1ccc(-c2ccc(Oc3ccccc3)cc2)cc1=O)(C(=O)NO)S(C)(=O)=O` (stereo not shown) [Example 156, N-hydroxy-2-methyl-2-(methylsulfonyl)-4-[2-oxo-4-(4-phenoxyphenyl)pyridin-1(2H)-yl]butanamide] came in with a PA-7 (MIC) of 4 µg/mL. Also, the EC-1 (MIC) in test [2] was below 0.06 µg/mL.

In turn, `CC(CCn1ccc(-c2cccc(F)c2Cl)cc1=O)(C(=O)NO)S(C)(=O)=O` (stereo not shown) [Example 157, 4-[4-(2-chloro-3-fluorophenyl)-2-oxopyridin-1(2H)-yl]-N-hydroxy-2-methyl-2-(methylsulfonyl)butanamide] returned a PA-7 (MIC) in test [1] of 2 µg/mL. In test [2], this compound registered an EC-1 (MIC) of 4 µg/mL.

`Cc1ccc(-c2ccn(CCC(C)(C(=O)NO)S(C)(=O)=O)c(=O)c2)o1` (stereo not shown) [Example 158] had a PA-7 (MIC) in test [1] of 64 µg/mL. Also, in test [2], the EC-1 (MIC) came to 64 µg/mL.

As for `CC(CCn1ccc(-c2ccccc2F)cc1=O)(C(=O)NO)S(C)(=O)=O` (stereo not shown) [Example 159, 4-[4-(2-fluorophenyl)-2-oxopyridin-1(2H)-yl]-N-hydroxy-2-methyl-2-(methylsulfonyl)butanamide], the PA-7 (MIC) in test [1] was 2 µg/mL. The compound further gave an EC-1 (MIC) in test [2] of 2 µg/mL.

Regarding `Cc1ccc(S(=O)(=O)N(C)C)cc1-c1ccn(CCC(C)(C(=O)NO)S(C)(=O)=O)c(=O)c1` (stereo not shown) [Example 160, 4-[4-{5-[(dimethylamino)sulfonyl]-2-methylphenyl}-2-oxopyridin-1(2H)-yl]-N-hydroxy-2-methyl-2-(methylsulfonyl)butanamide], the PA-7 (MIC) in test [1] is above 64 µg/mL. In test [2], the EC-1 (MIC) was above 64 µg/mL.

As for `COc1ccc(-c2ccn(CCC(C)(C(=O)NO)S(C)(=O)=O)c(=O)c2)c(OC)c1` (stereo not shown) [Example 161, 4-[4-(2,4-dimethoxyphenyl)-2-oxopyridin-1(2H)-yl]-N-hydroxy-2-methyl-2-(methylsulfonyl)butanamide], in test [1], the PA-7 (MIC) worked out at 8 µg/mL. Moreover, in test [2], the EC-1 (MIC) was 8 µg/mL.

The compound `CN1Cc2ccc(-c3ccn(CCC(C)(C(=O)NO)S(C)(=O)=O)c(=O)c3)cc2C1=O` (stereo not shown) [Example 162, N-hydroxy-2-methyl-4-[4-(2-methyl-3-oxo-2,3-dihydro-1H-isoindol-5-yl)-2-oxopyridin-1(2H)-yl]-2-(methylsulfonyl)butanamide] gave a PA-7 (MIC) in test [1] above 64 µg/mL. The EC-1 (MIC) in test [2] was above 64 µg/mL.

Take `CC(CCn1ccc(-c2cccc(Cl)c2Cl)cc1=O)(C(=O)NO)S(C)(=O)=O` (stereo not shown) [Example 163, 4-[4-(2,3-dichlorophenyl)-2-oxopyridin-1(2H)-yl]-N-hydroxy-2-methyl-2-(methylsulfonyl)butanamide]: the PA-7 (MIC) in test [1] worked out at 1 µg/mL. For the same compound, the EC-1 (MIC) in test [2] is 0.5 µg/mL.

As for `CC(CCn1ccc(-c2ccc3c(c2)CCO3)cc1=O)(C(=O)NO)S(C)(=O)=O` (stereo not shown) [Example 164, 4-[4-(2,3-dihydro-1-benzofuran-5-yl)-2-oxopyridin-1(2H)-yl]-N-hydroxy-2-methyl-2-(methylsulfonyl)butanamide], the PA-7 (MIC) in test [1] came to 32 µg/mL. The EC-1 (MIC) in test [2] came out at 8 µg/mL.

Take `CC(CCn1ccc(-c2cnn(Cc3ccccc3)c2)cc1=O)(C(=O)NO)S(C)(=O)=O` (stereo not shown) [Example 165, 4-[4-(1-benzyl-1H-pyrazol-4-yl)-2-oxopyridin-1(2H)-yl]-N-hydroxy-2-methyl-2-(methylsulfonyl)butanamide]: the PA-7 (MIC) in test [1] was above 64 µg/mL. For the same compound, the EC-1 (MIC) in test [2] is above 64 µg/mL.

For the compound `COc1cc(F)ccc1-c1ccn(CCC(C)(C(=O)NO)S(C)(=O)=O)c(=O)c1` (stereo not shown) [Example 166, 4-[4-(4-fluoro-2-methoxyphenyl)-2-oxopyridin-1(2H)-yl]-N-hydroxy-2-methyl-2-(methylsulfonyl)butanamide], the PA-7 (MIC) in test [1] was 8 µg/mL. Moreover, the EC-1 (MIC) in test [2] came to 16 µg/mL.

Compound `CC(=O)c1ccc(-c2ccn(CCC(C)(C(=O)NO)S(C)(=O)=O)c(=O)c2)s1` (stereo not shown) [Example 167, 4-[4-(5-acetyl-2-thienyl)-2-oxopyridin-1(2H)-yl]-N-hydroxy-2-methyl-2-(methylsulfonyl)butanamide] came in with a PA-7 (MIC) in test [1] of 16 µg/mL. The compound also displayed an EC-1 (MIC) in test [2] of 16 µg/mL.

In test [1], `CC(C)Oc1ncccc1-c1ccn(CCC(C)(C(=O)NO)S(C)(=O)=O)c(=O)c1` (stereo not shown) [Example 168, N-hydroxy-4-(2-isopropoxy-2′-oxo-3,4′-bipyridin-1′(2′H)-yl)-2-methyl-2-(methylsulfonyl)butanamide] showed a PA-7 (MIC) above 64 µg/mL. Besides, in test [2], the EC-1 (MIC) is above 64 µg/mL.

In the case of `CC(CCn1ccc(-c2cccc(C#N)c2)cc1=O)(C(=O)NO)S(C)(=O)=O` (stereo not shown) [Example 169, 4-[4-(3-cyanophenyl)-2-oxopyridin-1(2H)-yl]-N-hydroxy-2-methyl-2-(methylsulfonyl)butanamide], the PA-7 (MIC) in test [1] came to 64 µg/mL. This compound also returned an EC-1 (MIC) in test [2] above 64 µg/mL.

`COc1ccc(-c2ccn(CCC(C)(C(=O)NO)S(C)(=O)=O)c(=O)c2)cc1` (stereo not shown) [Example 170, N-hydroxy-4-[4-(4-methoxyphenyl)-2-oxopyridin-1(2H)-yl]-2-methyl-2-(methylsulfonyl)butanamide] showed a PA-7 (MIC) in test [1] of 1 µg/mL. In addition, the EC-1 (MIC) in test [2] worked out at 1 µg/mL.

`Cc1ccc(F)cc1-c1ccn(CCC(C)(C(=O)NO)S(C)(=O)=O)c(=O)c1` (stereo not shown) [Example 171, 4-[4-(5-fluoro-2-methylphenyl)-2-oxopyridin-1(2H)-yl]-N-hydroxy-2-methyl-2-(methylsulfonyl)butanamide] showed a PA-7 (MIC) in test [1] of 32 µg/mL. The compound further gave an EC-1 (MIC) in test [2] of 64 µg/mL.

Consider `Cn1ccnc1-c1cccc(-c2ccn(CCC(C)(C(=O)NO)S(C)(=O)=O)c(=O)c2)c1` (stereo not shown) [Example 172, N-hydroxy-2-methyl-4-{4-[3-(1-methyl-1H-imidazol-2-yl)phenyl]-2-oxopyridin-1(2H)-yl}-2-(methylsulfonyl)butanamide], for which, in test [1], the PA-7 (MIC) is above 64 µg/mL. For the same compound, the EC-1 (MIC) in test [2] is above 64 µg/mL.

On to `COc1ccc(F)cc1-c1ccn(CCC(C)(C(=O)NO)S(C)(=O)=O)c(=O)c1` (stereo not shown) [Example 173, 4-[4-(5-fluoro-2-methoxyphenyl)-2-oxopyridin-1(2H)-yl]-N-hydroxy-2-methyl-2-(methylsulfonyl)butanamide], for which the PA-7 (MIC) in test [1] turned out to be 64 µg/mL. The compound further had an EC-1 (MIC) in test [2] of 64 µg/mL.

In test [1], `CC(CCn1ccc(-c2ccc(C(F)(F)F)cc2C(F)(F)F)cc1=O)(C(=O)NO)S(C)(=O)=O` (stereo not shown) [Example 174, 4-{4-[2,4-bis(trifluoromethyl)phenyl]-2-oxopyridin-1(2H)-yl}-N-hydroxy-2-methyl-2-(methylsulfonyl)butanamide] yielded a PA-7 (MIC) above 64 µg/mL. The EC-1 (MIC) in test [2] is 64 µg/mL.

As to `CC(CCn1ccc(-c2ccco2)cc1=O)(C(=O)NO)S(C)(=O)=O` (stereo not shown) [Example 175, 4-[4-(2-furyl)-2-oxopyridin-1(2H)-yl]-N-hydroxy-2-methyl-2-(methylsulfonyl)butanamide], the PA-7 (MIC) in test [1] was 16 µg/mL. The compound further yielded an EC-1 (MIC) in test [2] of 64 µg/mL.

For the origin of these results see patent US8846933B2, “N-link hydroxamic acid derivatives useful as antibacterial agents” (Pfizer Inc., priority 2009, dated 2014).
